Assay results reported in patent publication US20240101602A1, “ANTIMICROBIAL PEPTIDES AND METHOD OF PREVENTING OR TREATING INFECTION BY USING THE SAME” (priority 2020, published 2024).
In brackets after ≈: the same amount, converted by molar mass. Read-outs that look alike come from different tables or passages of the source. Non-standard residues stand in square brackets, D forms with d. Residues, ends and D or L forms follow the SMILES beside them. *: point of attachment. Palmitoyl = CCCCCCCCCCCCCCCC(=O)*; Octanoyl = CCCCCCCC(=O)*; Orn = NCCC[C@H](N)C(=O)O; Hexanoyl = CCCCCC(=O)*; Butyryl = CCCC(=O)*

What was measured:
Botrytis cinerea = type: cell-based
Procedure: (§1) The experiments were conducted in an optimal minimal medium for each pathogen. The media and growth conditions were described in Tables 2 and 3. MIC and MBC values were determined following the procedures described above. […] Fifty microliters of serially diluted peptides (2-fold the final concentration) were added in a 96-well polystyrene plate with 50 μL of the fungal spore suspension. […] The plates were incubated at an optimal temperature without shaking. […] MFC was determined as the lowest peptide concentration at which no fungal growth was observed.

[1] = system: Staphylococcus epidermidis ATCC 14990
[2] = system: Staphylococcus aureus BCRC 10777
[3] = system: Klebsiella pneumonia NTUH-K2044
[4] = system: Pseudomonas aeruginosa ATCC 9027
[5] = system: Salmonella typhimurium NCHU 15721
[6] = system: Cryptococcus neoformans T1 (fluconazole-resistant)
[7] = system: Cryptococcus deuterogattii R265
[8] = system: Cryptococcus neoformans H99
[9] = system: Cryptococcus neoformans 89-610 (fluconazole-resistant)
Eco DH5α = experiment: MIC and MBC by serial dilution in 96-well plate; type: cell-based, Escherichia coli; conditions: Table 13
Procedure: The effect of peptide length on the antimicrobial activity was investigated by deciding the minimal inhibitory concentration (MIC) and minimal bactericidal concentration (MBC) for each peptide against the pathogen with the media and growth conditions of phytopathogenic bacteria and E. coli as described in Table 1. Single bacterial colony grown on an optimal rich agar medium was picked, and each grew in 3 mL of the same rich liquid medium for 4 to 6 h.
For experiments carried out in the rich medium, the bacterial broth culture was then diluted in the same medium to give a final concentration of OD600=0.08, and then further diluted 100 folds in the same medium.
For experiments carried out in the minimal medium, the bacterial cells were collected from the bacterial liquid culture by centrifugation, re-suspended in an optimal minimal medium to give a final concentration of OD600=0.08, and then further diluted 100 folds in the same minimal medium.
Fifty microliters of serially diluted peptides (2-fold the final concentration) were added in a 96-well polystyrene plate with 50 μL of the bacterial culture. The final concentrations of peptides were 0, 2, 4, 8, 16 and 32 μg/mL. The plates were incubated at an optimal temperature without shaking.
MBC was determined as the lowest peptide concentration at which no colonies formed.

Erwinia chrysanthemi = type: cell-based
Procedure: (§2) The effect of peptide length on the antimicrobial activity was investigated by deciding the minimal inhibitory concentration (MIC) and minimal bactericidal concentration (MBC) for each peptide against the pathogen with the media and growth conditions of phytopathogenic bacteria and E. coli as described in Table 1. Single bacterial colony grown on an optimal rich agar medium was picked, and each grew in 3 mL of the same rich liquid medium for 4 to 6 h. For experiments carried out in the rich medium, the bacterial broth culture was then diluted in the same medium to give a final concentration of OD600=0.08, and then further diluted 100 folds in the same medium. For experiments carried out in the minimal medium, the bacterial cells were collected from the bacterial liquid culture by centrifugation, re-suspended in an optimal minimal medium to give a final concentration of OD600=0.08, and then further diluted 100 folds in the same minimal medium. Fifty microliters of serially diluted peptides (2-fold the final concentration) were added in a 96-well polystyrene plate with 50 μL of the bacterial culture. […] The plates were incubated at an optimal temperature without shaking. […] MBC was determined as the lowest peptide concentration at which no colonies formed. The experiments were conducted in an optimal minimal medium for each pathogen. The media and growth conditions were described in Tables 2 and 3. MIC and MBC values were determined following the procedures described above. […] Fifty microliters of serially diluted peptides (2-fold the final concentration) were added in a 96-well polystyrene plate with 50 μL of the fungal spore suspension.

[10] = system: Pectobacterium carotovorum subsp. carotovorum; type: cell-based
Procedure: as §2

Cgl FST02 = type: cell-based, Colletotricum gloeosporioides; conditions: Cgl FST02; optimal minimal media (Table 11)
Procedure: as §1

[11] = Salmonella typhimurium NCHU 15721
[12] = Pseudomonas aeruginosa ATCC 9027
[13] = Bc, optimal minimal media (Table 11)

Compound	MBC [1] [µg/mL]	MIC [1] [µg/mL]	MBC [2] [µg/mL]	MIC [2] [µg/mL]	MBC [3] [µg/mL]	MIC [3] [µg/mL]	MBC ([4]; ATCC 9027) [µg/mL]	MIC ([4]; ATCC 9027) [µg/mL]	also measured
CCCCCCCCCCCCCCCC(=O)N[C@@H](Cc1c[nH]c2ccccc12)C(=O)N[C@@H](CCCCN)C(=O)N[C@@H](CCCCN)C(=O)N[C@@H](CC(C)C)C(=O)N[C@@H](CCCCN)C(=O)N[C@@H](CCCCN)C(=O)N[C@@H](CC(C)C)C(=O)N[C@@H](CC(C)C)C(=O)N[C@@H](CCCCN)C(=O)N[C@@H](CCCCN)C(=O)N[C@@H](CC(C)C)C(=O)N[C@@H](CCCCN)C(=O)N[C@@H](CCCCN)C(=O)N[C@@H](CC(C)C)C(N)=O [pepD2P] (Palmitoyl-WKKLKKLLKKLKKL-NH2)									MFC (Botrytis cinerea): 6.4 µg/mL (≈ 3.15 µM); MIC (Botrytis cinerea): 6.4 µg/mL (≈ 3.15 µM)
CCCC(=O)N[C@@H](Cc1c[nH]c2ccccc12)C(=O)N[C@@H](CCCCN)C(=O)N[C@@H](CCCCN)C(=O)N[C@@H](CC(C)C)C(=O)N[C@@H](CCCCN)C(=O)N[C@@H](CCCCN)C(=O)N[C@@H](CC(C)C)C(=O)N[C@@H](CC(C)C)C(=O)N[C@@H](CCCCN)C(=O)N[C@@H](CCCCN)C(=O)N[C@@H](CC(C)C)C(N)=O [pepD3B] (Butyryl-WKKLKKLLKKL-NH2)	16 (≈ 10.7 µM)	16 (≈ 10.7 µM)	16 (≈ 10.7 µM)	16 (≈ 10.7 µM)	16 (≈ 10.7 µM)	16 (≈ 10.7 µM)			
CCCCCC(=O)N[C@@H](Cc1c[nH]c2ccccc12)C(=O)N[C@@H](CCCCN)C(=O)N[C@@H](CCCCN)C(=O)N[C@@H](CC(C)C)C(=O)N[C@@H](CCCCN)C(=O)N[C@@H](CCCCN)C(=O)N[C@@H](CC(C)C)C(=O)N[C@@H](CC(C)C)C(=O)N[C@@H](CCCCN)C(=O)N[C@@H](CCCCN)C(=O)N[C@@H](CC(C)C)C(N)=O [pepD3H] (Hexanoyl-WKKLKKLLKKL-NH2)	16 (≈ 10.5 µM)	16 (≈ 10.5 µM)	8 (≈ 5.25 µM)	8 (≈ 5.25 µM)	16 (≈ 10.5 µM)	16 (≈ 10.5 µM)	8 (≈ 5.25 µM)	4 (≈ 2.63 µM)	MBC ([5]; murium NCHU 15721): 32 µg/mL (≈ 21 µM); MIC ([5]; murium NCHU 15721): 16 µg/mL (≈ 10.5 µM)
CCCCCCCC(=O)N[C@@H](Cc1c[nH]c2ccccc12)C(=O)N[C@@H](CCCCN)C(=O)N[C@@H](CCCCN)C(=O)N[C@@H](CC(C)C)C(=O)N[C@@H](CCCCN)C(=O)N[C@@H](CCCCN)C(=O)N[C@@H](CC(C)C)C(=O)N[C@@H](CC(C)C)C(=O)N[C@@H](CCCCN)C(=O)N[C@@H](CCCCN)C(=O)N[C@@H](CC(C)C)C(N)=O [pepD3O] (Octanoyl-WKKLKKLLKKL-NH2)	8 (≈ 5.16 µM)	8 (≈ 5.16 µM)	8 (≈ 5.16 µM)	8 (≈ 5.16 µM)	16 (≈ 10.3 µM)	16 (≈ 10.3 µM)			
CC(=O)N[C@@H](Cc1c[nH]c2ccccc12)C(=O)N[C@@H](CCCN)C(=O)N[C@@H](CCCN)C(=O)N[C@@H](CC(C)C)C(=O)N[C@@H](CCCN)C(=O)N[C@@H](CCCN)C(=O)N[C@@H](CC(C)C)C(=O)N[C@@H](CC(C)C)C(=O)N[C@@H](CCCN)C(=O)N[C@@H](CCCN)C(=O)N[C@@H](CC(C)C)C(=O)N[C@@H](CCCN)C(=O)N[C@@H](CCCN)C(=O)N[C@@H](CC(C)C)C(N)=O [pepO2, Ac-WOOLOOLLOOLOOL-NH2] (Ac-W[Orn][Orn]L[Orn][Orn]LL[Orn][Orn]L[Orn][Orn]L-NH2)	32 (≈ 18.6 µM)	32 (≈ 18.6 µM)	32 (≈ 18.6 µM)	32 (≈ 18.6 µM)	32 (≈ 18.6 µM)	16 (≈ 9.28 µM)			
CC(=O)N[C@@H](Cc1c[nH]c2ccccc12)C(=O)N[C@H](CCCCN)C(=O)N[C@H](CCCCN)C(=O)N[C@H](CC(C)C)C(=O)N[C@H](CCCCN)C(=O)N[C@H](CCCCN)C(=O)N[C@H](CC(C)C)C(=O)N[C@H](CC(C)C)C(=O)N[C@H](CCCCN)C(=O)N[C@H](CCCCN)C(=O)N[C@H](CC(C)C)C(N)=O [pepdD3, Ac-Wkklkkllkkl-NH2] (Ac-W[dK][dK][dL][dK][dK][dL][dL][dK][dK][dL]-NH2)									MIC ([6]; Cryptococcus neoformans T1 (fluconazole-resistant)): 4 µg/mL (≈ 2.73 µM); MFC ([6]; T1 (fluconazole-resistant)): 4 µg/mL (≈ 2.73 µM); MFC [7]: 4 µg/mL (≈ 2.73 µM); MIC ([7]; Cryptococcus deuterogattii R265): 4 µg/mL (≈ 2.73 µM); MIC ([8]; Cryptococcus neoformans H99): 8 µg/mL (≈ 5.45 µM); MFC ([8]; H99): 8 µg/mL (≈ 5.45 µM); MFC ([9]; 89-610 (fluconazole-resistant)): 4 µg/mL (≈ 2.73 µM); MIC ([9]; Cryptococcus neoformans 89-610 (fluconazole-resistant)): 4 µg/mL (≈ 2.73 µM)
Ac-WKKIKKIIKKIKKI-NH2 [pepI2]	32	16	32	32	32	16	4	4	MBC (Eco DH5α): 5.3 µg/mL; MIC (Eco DH5α): 5.3 µg/mL; MBC (Erwinia chrysanthemi): 16.0 µg/mL; MIC (Erwinia chrysanthemi): 16.0 µg/mL; MBC [10]: 1.8 µg/mL; MIC [10]: 1.5 µg/mL; MBC [5, 11]: 16 µg/mL; MIC [5, 11]: 8 µg/mL
Ac-WKKLHKLLKKL-NH2 [pepD3-5H]							8	4	
Ac-WKKLKKALKKL-NH2 [pepD3-7A]							8	4	
Ac-WKKLKKFLKKL-NH2 [pepD3-7F]							8	4	
Ac-WKKLKKILKKL-NH2 [pepD3-7I]							4	4	
Ac-WKKLKKMLKKL-NH2 [pepD3-7M]							8	4	
Ac-WKKLRKLLKKL-NH2 [pepD3-5R]									MBC [4, 12]: 8 µg/mL; MIC [4, 12]: 4 µg/mL
Ac-WKKVKKVVKKVKKV-NH2 [pepV2]									MBC (Eco DH5α): 32.0 µg/mL; MIC (Eco DH5α): 32.0 µg/mL
Ac-WRRLRRLLRRLRRL-NH2 [pepR2]	16	16	16	16	32	32			
Stearyl-WKKLKKLLKKLKKL-NH2 (stearyl-WKKLKKLLKKLKKL-NH2) [pepD2S, 11]									MFC (Botrytis cinerea; [13]): — (“—” indicates no antimicrobial activity being detected at the highest peptide concentration (32 μg/mL) tested in this study.); MIC (Botrytis cinerea; [13]): — (“—” indicates no antimicrobial activity being detected at the highest peptide concentration (32 μg/mL) tested in this study.); MFC (Cgl FST02): — (“—” indicates no antimicrobial activity being detected at the highest peptide concentration (32 μg/mL) tested in this study.); MIC (Cgl FST02): — (“—” indicates no antimicrobial activity being detected at the highest peptide concentration (32 μg/mL) tested in this study.)
